US20220249617A1, “CYCLODEXTRIN BASED INJECTABLE COFORMULATIONS OF SGLT2 INHIBITORS AND INCRETIN PEPTIDES” (MEDIMMUNE LIMITED, priority 2019, published 2022)
Values after ≈ are worked out from the molar mass of the structure shown.

Key:
[1] = target 17 mg/mL DPZ; formulation containing cyclodextrin (HPβCD); visual observation
Method: The appropriate aqueous vehicle was added onto the powder to achieve a final concentration of 17 mg/mL, vortex mixed, and sonicated. The pass/fail criteria for the formulation was determined through visual observation.
The screening assay was therefore designed to target a concentration of 17 mg/mL, corresponding to a […] dose in 600 μL dose volume. […] The excipients screened included PEG 400, PG, DSPE-PEG 2000, Glycerol, Kolliphor 188, HPβCD, and BSA. […] Only the formulation containing cyclodextrin was successful and therefore taken forward for further evaluation as a potential co-formulation vehicle.

physchem = assay: physchem
Method: Various HPβCD (Kleptose HPB, Roquette) solutions at increasing concentrations were prepared in water ranging from 5% to 20% (w/v). Briefly, HPβCD was weighed in a volumetric flask and purified water was added up to 80% (v/v) of final volume. The flask was mixed until full solubilisation and made up to final volume with purified water. […] Each concentration was done in duplicate. The formulations were left under magnetic stirring for 21 h 40 min. Each sample was then transferred to a 1.5 mL eppendorf and centrifuged at 13,000 rpm for 10 min. Then 200 μL was taken from the supernatant and centrifuged again in a 1.5 mL eppendorf for 30 min at 13,000 rpm. The samples were finally diluted in buffer A (95% HPLC water/5% ACN+0.03% TFA), and the concentration was measured by UPLC against a calibration curve validated with quality controls.

[2] = Pharmacokinetic study after subcutaneous injection in rats; format: in vivo; settings: DPZ 0.5 mg/kg
Method: For the PK study, MEDI0382 alone in buffer was prepared at 0.5 mg/mL in 50 mM Na Phosphate buffer pH 7.8+1.85% propylene glycol (PG) (J. T. Baker).
The cyclodextrin vehicle used for the PK study was 7% w/v HPβCD in 50 mM Na Phosphate buffer pH 7.8+0.5% v PG. The PG was added to adjust the osmolarity of the formulations to 260 mOsm. […] In parallel, MEDT0382 alone in buffer was prepared at 0.5 mg/mL in 50 mM NaP buffer pH 7.8+1.85% v/v PG. The formulations were then diluted to 1/10 with their corresponding vehicle.
Three animals per group were included, and serial blood sampling for PK evaluation occurred at 0.5, 1, 2, 4, 7, and 24 hr post dose.

[3] = oral administration; cited from earlier work
[4] = molecular target: T1, human recombinant GLP-1 receptor (Homo sapiens, UniProt P43220); assay: In vitro potency assay, cAMP response element luciferase reporter in CHO cells; format: cell-based; settings: MEDI0382 in buffer, in cyclodextrin, and co-formulated with DPZ
T1 construct: expressed in transfected cells; host or cells: CHO-K1
Method: (§1) Briefly, cells were plated at 20,000 cells per well in 96-well white microtiter plates (Corning, USA) and incubated with serially diluted peptide samples for 4 hours prior to lysis and measurement of cAMP dependent luciferase activity using Steady-Glo luciferase substrate (Promega, USA). Plates were read on a SpectraMax Paradigm plate reader (Molecular Devices, USA), and 10-point concentration-response curves were generated in triplicate. Results were expressed as the relative potency of the test sample compared to a reference ligand by calculating the ratio of the reference and sample EC50 values from a 4-PL fit following a test for parallelism using SoftMax Pro software (Molecular Devices, USA), and the reported data was the mean of two independent assays. Curves were fitted using nonlinear regression analysis in GraphPad Prism software 6.03 (GraphPad, USA).
(§2) Although HPβCD enhances the physical stability of the peptide, the loss of alpha-helix could have a dramatic impact on the potency of the peptide. […] The in vitro potency was assessed on CHO cells over-expressing human recombinant GLP-1 or glucagon receptors, and the activity was reported as EC50 values after measurement of cAMP accumulation.

[5] = molecular target: T2, human recombinant glucagon receptor (Homo sapiens, UniProt P47871); assay: as above; format: cell-based; settings: MEDI0382 in buffer, in cyclodextrin, and co-formulated with DPZ
T2 construct: expressed in transfected cells; host or cells: CHO-K1
Method: as §1, §2

DIO mice = settings: repeat injections; cited from earlier work
non-human primates = settings: repeat injections; cited from earlier work
[6] = test system: overweight and obese patients with type 2 diabetes; settings: cited from earlier work
[7] = cited from earlier work

T2 sequence (P47871 26-477): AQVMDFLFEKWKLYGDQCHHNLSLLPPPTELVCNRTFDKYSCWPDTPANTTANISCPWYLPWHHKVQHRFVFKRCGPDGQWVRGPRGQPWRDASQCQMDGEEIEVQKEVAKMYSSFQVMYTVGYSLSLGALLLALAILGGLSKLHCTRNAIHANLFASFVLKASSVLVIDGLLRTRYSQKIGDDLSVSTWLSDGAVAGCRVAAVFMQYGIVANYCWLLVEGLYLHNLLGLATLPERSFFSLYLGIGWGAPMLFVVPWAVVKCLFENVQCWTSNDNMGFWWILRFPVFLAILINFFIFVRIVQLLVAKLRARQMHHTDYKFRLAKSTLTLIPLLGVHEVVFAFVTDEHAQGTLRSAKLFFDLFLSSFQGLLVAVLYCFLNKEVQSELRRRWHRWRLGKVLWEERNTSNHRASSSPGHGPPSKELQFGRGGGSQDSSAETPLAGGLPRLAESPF
T1 sequence (P43220 24-463): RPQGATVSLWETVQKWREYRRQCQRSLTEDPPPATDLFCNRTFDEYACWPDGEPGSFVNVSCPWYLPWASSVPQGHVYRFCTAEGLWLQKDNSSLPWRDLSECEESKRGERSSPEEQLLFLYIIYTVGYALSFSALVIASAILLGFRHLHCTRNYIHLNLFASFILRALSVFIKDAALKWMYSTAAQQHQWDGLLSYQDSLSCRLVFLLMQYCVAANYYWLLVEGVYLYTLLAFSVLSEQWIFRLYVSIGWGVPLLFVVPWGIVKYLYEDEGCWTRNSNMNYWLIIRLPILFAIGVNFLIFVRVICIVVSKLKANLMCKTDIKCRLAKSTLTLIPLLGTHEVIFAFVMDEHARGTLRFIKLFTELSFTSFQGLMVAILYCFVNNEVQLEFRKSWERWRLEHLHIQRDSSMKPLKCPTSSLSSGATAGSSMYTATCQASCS

In the case of CCOc1ccc(Cc2cc([C@@H]3O[C@H](CO)[C@@H](O)[C@H](O)[C@H]3O)ccc2Cl)cc1 [DPZ, dapagliflozin], the “Solubility screen result (pass/fail)” value [1] is reported as “successful”, the “amount of HPβCD required to increase the solubility up to 17 mg/mL” value (physchem) is reported as 5.5 % (w/v) and the “solubility change with increasing HPβCD concentration” value (physchem) is reported as “linearly increased”. The “stoichiometry of inclusion complex (phase solubility)” value (physchem) was 1:1, the solubility at 21.67 h (physchem; water, thermodynamic from solid) was 1600 µg/mL (≈ 3.91 mM) and the “PK of DPZ in the presence of MEDI0382” value [2] was “unchanged”. The absolute bioavailability [3] was 78%.
For OC[C@H]1O[C@@H](c2ccc(Cl)c(Cc3ccc(O[C@H]4CCOC4)cc3)c2)[C@H](O)[C@@H](O)[C@@H]1O [EPZ, empagliflozin], the “solubility change with increasing HPβCD concentration” value (physchem) was “linear solubility increase”.
For CCCCCCCCCCCCCCCC(=O)N[C@@H](CCC(=O)NCCCC[C@H](NC(=O)[C@H](CC(=O)O)NC(=O)[C@H](CO)NC(=O)[C@@H](NC(=O)[C@H](Cc1ccccc1)NC(=O)[C@@H](NC(=O)CNC(=O)[C@H](CCC(N)=O)NC(=O)[C@H](CO)NC(=O)[C@@H](N)Cc1c[nH]cn1)[C@@H](C)O)[C@@H](C)O)C(=O)N[C@@H](CO)C(=O)N[C@@H](CCC(=O)O)C(=O)N[C@@H](Cc1ccc(O)cc1)C(=O)N[C@@H](CC(C)C)C(=O)N[C@@H](CC(=O)O)C(=O)N[C@@H](CO)C(=O)N[C@@H](CCC(=O)O)C(=O)N[C@@H](CCCNC(=N)N)C(=O)N[C@@H](C)C(=O)N[C@@H](CCCNC(=N)N)C(=O)N[C@@H](CC(=O)O)C(=O)N[C@@H](Cc1ccccc1)C(=O)N[C@H](C(=O)N[C@@H](C)C(=O)N[C@@H](Cc1c[nH]c2ccccc12)C(=O)N[C@@H](CC(C)C)C(=O)N[C@@H](CCC(=O)O)C(=O)N[C@@H](C)C(=O)NCC(=O)NCC(=O)O)C(C)C)C(=O)O [MEDI0382], the “EC50 (cAMP accumulation), change between formulations” value [4] is given as “no change of EC50”, the “EC50 (cAMP accumulation), change between formulations” value [5] is given as “no change of EC50” and the “effect on weight and glucose” value (DIO mice) is given as “marked weight loss and robust glucose control”. The “effect on weight and glucose” value (non-human primates) was “marked weight loss and robust glucose control” and the clinical efficacy [6] was “glucose, weight and liver fat lowering efficacy”.
For glucagon, the “pKa of N-terminal His alpha-amino group” value [7] is given as 7.6 and the “pKa of N-terminal His imidazole group” value [7] is given as 7.4.
